Laboratory results from patent publication US4153692A, “Acylated imidazolyl-O,N-acetals, their pharmaceutically acceptable salts and metal complexes” (Bayer Aktiengesellschaft, priority 1976, dated 1979).
In brackets after ≈: the same amount, converted by molar mass.

Columns and labels:
Penicillium commune = experiment: Antimycotic in vitro activity (series dilution test, MIC); type: cell-based; settings: Sabouraud's milieu d'epreuve, 28° C., 24 to 96 hours, 5 × 10^4 germs/ml, read-out: MIC values in γ/ml of nutrient medium with Penicillium commune
Protocol: (§1) Antimycotic in vitro activity Description of the experiment The in vitro tests were carried out in a series dilution test using germ inocula with an average of 5 × 10^4 germs/ml of substrate. The nutrient medium used was a) for dermatophytes and molds: Sabouraud's milieu d'epreuve and b) for yeasts: meat extract/glucose broth. The incubation temperature was 28° C. and the incubation time was 24 to 96 hours.

Aspergillus niger = experiment: as above; type: cell-based; settings: Sabouraud's milieu d'epreuve, 28° C., 24 to 96 hours, 5 × 10^4 germs/ml, read-out: MIC values in γ/ml of nutrient medium with Aspergillus niger
Protocol: as §1

[1] = tested on: Trichophyton mentagrophytes; experiment: as above; type: cell-based; settings: Sabouraud's milieu d'epreuve, 28° C., 24 to 96 hours, 5 × 10^4 germs/ml, read-out: MIC values in γ/ml of nutrient medium with Trichophyton mentagrophytes
Protocol: as §1

Microsporum felinum = experiment: as above; type: cell-based; settings: Sabouraud's milieu d'epreuve, 28° C., 24 to 96 hours, 5 × 10^4 germs/ml, read-out: MIC values in γ/ml of nutrient medium with Microsporum felinum
Protocol: as §1

Candida albicans = experiment: as above; type: cell-based; settings: meat extract/glucose broth, 28° C., 24 to 96 hours, 5 × 10^4 germs/ml, read-out: MIC values in γ/ml of nutrient medium with Candida albicans
Protocol: as §1

Candida cells = experiment: Antimycotic in vivo activity on candidosis in mice; parameters: species or system mice of the SPF-CF1 type; settings: mice infected i.v. with Candida; 100 mg/kg orally one hour before and seven hours after infection; untreated survival about 5%
Protocol: antimycotic in vivo activity on candidosis in mice Description of the experiment Mice of the SPF-CF1 type were infected intravenously with 1-2 × 10^6 logarithmically-growing Candida cells, which were suspended in physiological sodium chloride solution. One hour before and seven hours after the infection the animals were treated orally with, in each case, 100 mg of the formulations per kg of body weight. Untreated animals died of the infection 3 to 6 days after infection. The survival rate on the 6th day after infection was about 5% in the case of the untreated control animals

| MIC (Penicillium commune) [µg/mL] | MIC (Aspergillus niger) [µg/mL] | MIC [1] [µg/mL] | MIC (Microsporum felinum) [µg/mL] | MIC (Candida albicans) [µg/mL] | Compound | Action (survivors on the 6th day after infection) (Candida cells) |
| --- | --- | --- | --- | --- | --- | --- |
| 32 (≈ 95 µM) | 64 (≈ 190 µM) | 4 (≈ 11.9 µM) | 32 (≈ 95 µM) | 32 (≈ 95 µM) | CC(=O)OC(C(Oc1ccc(Cl)cc1)n1ccnc1)C(C)(C)C (stereo not shown) [drawing 7] |  |
| > 64 | > 64 | 32 (≈ 123 µM) | > 64 | 32 (≈ 123 µM) | CC(C)(C)C(O)C(Oc1ccccc1)n1ccnc1 (stereo not shown) |  |
|  |  |  |  |  | CC(C)(C)C(O)C(Oc1cccc(Cl)c1)n1ccnc1 (stereo not shown) [drawing 13] | + (trace action = < 40% survivors on 6th day after infection) |
|  |  |  |  |  | CC(=O)OC(C(Oc1ccc(-c2ccc(Cl)cc2)cc1)n1ccnc1)C(C)(C)C (stereo not shown) [drawing 18] | ++++ (good action = ≥ 80% survivors on the 6th day after infectio) |
| > 64 |  | 64 (≈ 217 µM) |  | 32 (≈ 109 µM) | CC(C)(C)C(O)C(Oc1cccc(Cl)c1)n1ccnc1 (stereo not shown) [drawing 4] |  |
| 32 (≈ 83.2 µM) |  | 8 (≈ 20.8 µM) |  | 64 (≈ 166 µM) | CC(=O)OC(C(Oc1ccc(C2CCCCC2)cc1)n1ccnc1)C(C)(C)C (stereo not shown) |  |
|  |  |  |  |  | CC(=O)OC(C(Oc1ccc(Br)cc1)n1ccnc1)C(C)(C)C (stereo not shown) [drawing 16] | ++ (weak action = ≥ 40% survivors on the 6th day after infection) |
|  |  |  |  |  | CC(=O)OC(C(Oc1ccc(I)cc1)n1ccnc1)C(C)(C)C (stereo not shown) [drawing 20] | + (trace action = < 40% survivors on 6th day after infection) |
|  |  |  |  |  | CC(=O)OC(C(Oc1ccccc1)n1ccnc1)C(C)(C)C (stereo not shown) | ++ (weak action = ≥ 40% survivors on the 6th day after infection) |
| 64 (≈ 155 µM) | 64 (≈ 155 µM) | < 1 | 32 (≈ 77.5 µM) | 32 (≈ 77.5 µM) | CC(=O)OC(C(Oc1ccc(-c2ccc(Cl)cc2)cc1)n1ccnc1)C(C)(C)C (stereo not shown) [drawing 11] |  |
| 64 (≈ 149 µM) | 64 (≈ 149 µM) | 4 (≈ 9.34 µM) | 32 (≈ 74.7 µM) | 32 (≈ 74.7 µM) | CC(=O)OC(C(Oc1ccc(I)cc1)n1ccnc1)C(C)(C)C (stereo not shown) [drawing 10] |  |
|  |  |  |  |  | CC(=O)OC(C(Oc1ccc(Cl)cc1)n1ccnc1)C(C)(C)C (stereo not shown) [drawing 15] | ++++ (good action = ≥ 80% survivors on the 6th day after infectio) |
| 32 (≈ 83.9 µM) | 64 (≈ 168 µM) | 4 (≈ 10.5 µM) | 32 (≈ 83.9 µM) | 64 (≈ 168 µM) | CC(=O)OC(C(Oc1ccc(Br)cc1)n1ccnc1)C(C)(C)C (stereo not shown) [drawing 9] |  |
|  |  |  |  |  | CC(=O)OC(C(Oc1ccc(F)cc1)n1ccnc1)C(C)(C)C (stereo not shown) | +++ (action = ≥ 60% survivors on the 6th day after infection) |
| 8 (≈ 21.1 µM) | < 1 | < 1 | 8 (≈ 21.1 µM) | 64 (≈ 169 µM) | CC(=O)OC(C(Oc1ccc(-c2ccccc2)cc1)n1ccnc1)C(C)(C)C (stereo not shown) |  |
| > 64 |  | 32 (≈ 101 µM) |  | 64 (≈ 202 µM) | CC(C)(C)c1ccc(OC(C(O)C(C)(C)C)n2ccnc2)cc1 (stereo not shown) |  |
